≈ marks a conversion by molar mass, not a printed value.
Tests used:
[1] = test system: Mycobacterium tuberculosis; test: Antimycobacterial activity against Mycobacterium tuberculosis H37Rv; assay type: functional, organism-based
[2] = test system: Mycobacterium tuberculosis; test: Antimycobacterial activity against Mycobacterium tuberculosis H37Ra by microplate alamar blue assay; assay type: functional
[3] = test system: Mycobacterium tuberculosis; test: Bactericidal activity against Mycobacterium tuberculosis H37Rv; assay type: functional
[4] = test system: Mycobacterium tuberculosis; test: Antimycobacterial activity against p-aminosalicyclic acid-resistant Mycobacterium tuberculosis H37Rv ATCC 35821; assay type: functional
[5] = test system: Mycobacterium tuberculosis; test: Antimycobacterial activity against Mycobacterium tuberculosis H37Rv after 7 days by microplate alamar blue assay; assay type: functional; conditions: 168 h
[6] = test system: Mycobacterium tuberculosis; test: Antimycobacterial activity against Mycobacterium tuberculosis H37Rv ATCC 27294 by microplate alamar blue assay; assay type: functional
[7] = test system: Mycobacterium tuberculosis; test: Antimycobacterial activity against Mycobacterium tuberculosis H37Rv ATCC 27294 after 5 days by microplate alamar blue assay; assay type: functional; conditions: H37Rv ATCC 27294, 120 h
[8] = test system: Mycobacterium tuberculosis; test: Antimycobacterial activity against Mycobacterium tuberculosis H37Rv ATCC 27294 by BACTEC-460 radiometric susceptibility assay; assay type: functional

Structure (SMILES)	IC50 [1] [µM]	IC90 [1] [µM]	MIC [1] [µM]	other results
CC1(C)CC[C@]2(COC(=O)CCC(=O)O)CC[C@]3(C)C(=CC[C@@H]4[C@@]5(C)CCCNC(C)(C)[C@@H]5CC[C@]43C)[C@H]2C1	20.6	82.5	100 (≈ 54.2 µg/mL)	
C=C(C)[C@@H]1CC[C@]2(COC(=O)/C=C/c3ccc(OC)cc3)CC[C@]3(C)[C@H](CC[C@@H]4[C@@]5(C)CCCNC(C)(C)[C@@H]5CC[C@]43C)[C@@H]12	160	> 200	> 200	
CC1(C)CC[C@@]23CC[C@]4(C)C(OC2)(C(=O)C[C@@H]2[C@@]5(C)CCCNC(C)(C)[C@@H]5CC[C@]24C)[C@H]3C1	11	53	29 (≈ 13.2 µg/mL)	
COC(=O)[C@]12CC[C@@H](C(C)CO)[C@@H]1[C@H]1CC[C@@H]3[C@@]4(C)CCC(=O)NC(C)(C)[C@@H]4CC[C@@]3(C)[C@]1(C)CC2 (some centres undefined)	5.7	18.3	12.5 (≈ 6.27 µg/mL)	
CC1(C)CC[C@]2(C(=O)O)CC[C@]3(C)C(=CC[C@@H]4[C@@]5(C)CC[C@H](OC(=O)/C=C/c6ccc(O)cc6)C(C)(C)[C@@H]5CC[C@]43C)[C@@H]2C1				MIC [2]: 6.25 µg/mL (≈ 10.4 µM)
CC1(C)CC[C@]2(COC(=O)/C=C/c3ccccc3)CC[C@]3(C)C(=CC[C@@H]4[C@@]5(C)CCCNC(C)(C)[C@@H]5CC[C@]43C)[C@H]2C1	8	12	12 (≈ 6.86 µg/mL)	MBC [3]: 12 µg/mL (≈ 21 µM)
COC(=O)[C@]12CC[C@@H](C)[C@H](C)[C@@H]1C1=CC[C@@H]3[C@@]4(C)CCC(=O)NC(C)(C)[C@@H]4CC[C@@]3(C)[C@]1(C)CC2			> 10	
CC(COC(=O)/C=C/c1ccccc1)[C@@H]1CC[C@]2(COC(=O)/C=C/c3ccccc3)CC[C@]3(C)[C@H](CC[C@@H]4[C@@]5(C)CCCNC(C)(C)[C@@H]5CC[C@]43C)[C@@H]12 (some centres undefined)	> 200	> 200	200 (≈ 144 µg/mL)	
C=C(C)[C@@H]1CC[C@]2(CO)CC[C@]3(C)[C@H](CC[C@@H]4[C@@]5(C)CCCNC(C)(C)[C@@H]5CC[C@]43C)[C@@H]12	10.9	12.4	10 (≈ 4.42 µg/mL)	MIC [4]: 5 µg/mL (≈ 11.3 µM); MBC [3]: 10 µg/mL (≈ 22.6 µM)
C/C(=N\O)[C@@H]1CC[C@]2(CO)CC[C@]3(C)[C@H](CC[C@@H]4[C@@]5(C)CCCNC(C)(C)[C@@H]5CC[C@]43C)[C@@H]12	43	41	43 (≈ 19.7 µg/mL)	
COc1ccc(/C=C/C(=O)OC[C@]23CC[C@@H](C)[C@H](C)[C@@H]2C2=CC[C@@H]4[C@@]5(C)CCCNC(C)(C)[C@@H]5CC[C@@]4(C)[C@]2(C)CC3)cc1	1.8	2.5	3.12 (≈ 1.88 µg/mL)	MBC [3]: 12 µg/mL (≈ 19.9 µM)
COC(=O)[C@]12CCC(C)(C)C[C@@H]1C1=CC[C@@H]3[C@@]4(C)CCC(=O)NC(C)(C)[C@@H]4CC[C@@]3(C)[C@]1(C)CC2			> 10	
C[C@H]1[C@H](C)CC[C@]2(COC(=O)CCC(=O)O)CC[C@]3(C)C(=CC[C@@H]4[C@@]5(C)CCCNC(C)(C)[C@@H]5CC[C@]43C)[C@@H]12	92	110	111 (≈ 60.1 µg/mL)	
C[C@H]1[C@H](C)CC[C@]2(CO)CC[C@]3(C)C(=CC[C@@H]4[C@@]5(C)CCCNC(C)(C)[C@@H]5CC[C@]43C)[C@@H]12	4.9	14.5	12.5 (≈ 5.52 µg/mL)	MBC [3]: 20 µg/mL (≈ 45.3 µM)
CC(CO)[C@@H]1CC[C@]2(CO)CC[C@]3(C)[C@H](CC[C@@H]4[C@@]5(C)CCCNC(C)(C)[C@@H]5CC[C@]43C)[C@@H]12 (some centres undefined)	4.6	14.1	12.5 (≈ 5.75 µg/mL)	
C=C(C)[C@@H]1CC[C@]2(COC(=O)CCC(=O)O)CC[C@]3(C)[C@H](CC[C@@H]4[C@@]5(C)CCCNC(C)(C)[C@@H]5CC[C@]43C)[C@@H]12	40	70	61 (≈ 33.1 µg/mL)	MBC [3]: 11 µg/mL (≈ 20.3 µM)
C[C@H]1[C@H](C)CC[C@]2(COC(=O)/C=C/c3ccccc3)CC[C@]3(C)C(=CC[C@@H]4[C@@]5(C)CCCNC(C)(C)[C@@H]5CC[C@]43C)[C@@H]12	3.8	5.2	6.25 (≈ 3.57 µg/mL)	MBC [3]: 14 µg/mL (≈ 24.5 µM)
C=C(C)[C@@H]1CC[C@]2(COC(=O)/C=C/c3ccccc3)CC[C@]3(C)[C@H](CC[C@@H]4[C@@]5(C)CCCNC(C)(C)[C@@H]5CC[C@]43C)[C@@H]12	6.7	7.7	10 (≈ 5.72 µg/mL)	MBC [3]: 4 µg/mL (≈ 6.99 µM)
COC(=O)[C@]12CCC(C)(C)C[C@@H]1C1/C(=N/O)C[C@@H]3[C@@]4(C)CCC(=O)NC(C)(C)[C@@H]4CC[C@@]3(C)[C@]1(C)CC2 (some centres undefined)	54	97	97 (≈ 49.9 µg/mL)	
CC1(C)CC[C@]2(CO)CC[C@]3(C)C(=CC[C@@H]4[C@@]5(C)CCCNC(C)(C)[C@@H]5CC[C@]43C)[C@H]2C1	3.8	11.5	12.5 (≈ 5.52 µg/mL)	MBC [3]: 20 µg/mL (≈ 45.3 µM)
C=C(C)[C@@H]1CC[C@]2(C(=O)OC)CC[C@]3(C)[C@H](CC[C@@H]4[C@@]5(C)CCC(=O)NC(C)(C)[C@@H]5CC[C@]43C)[C@@H]12			> 10	

Structure (SMILES)	IC50 [1] [µM]	IC90 [1] [µM]	MIC [1] [µM]	other results
COC(=O)[C@]12CC[C@@H](C(C)COC(=O)/C=C/c3ccccc3)[C@@H]1[C@H]1CC[C@@H]3[C@@]4(C)CCC(=O)NC(C)(C)[C@@H]4CC[C@@]3(C)[C@]1(C)CC2 (some centres undefined)	> 200	> 200	> 200	
C=C(C)[C@@H]1CC[C@]2(CO)CC[C@]3(C)[C@H](CC[C@@H]4[C@@]5(C)CCCN(CCCN)C(C)(C)[C@@H]5CC[C@]43C)[C@@H]12			> 10	
CC(=O)[C@@H]1CC[C@]2(CO)CC[C@]3(C)[C@H](CC[C@@H]4[C@@]5(C)CCCNC(C)(C)[C@@H]5CC[C@]43C)[C@@H]12	17.7	56.9	50 (≈ 22.2 µg/mL)	
COc1ccc(/C=C/C(=O)OC[C@]23CCC(C)(C)C[C@@H]2C2=CC[C@@H]4[C@@]5(C)CCCNC(C)(C)[C@@H]5CC[C@@]4(C)[C@]2(C)CC3)cc1	> 100	> 100	> 100	
COc1cc(/C=C/C(=O)O)ccc1O.C[C@H]1[C@H](C)CC[C@]2(C(=O)O)CC[C@]3(C)C(=CC[C@@H]4[C@@]5(C)CC[C@H](O)C(C)(C)[C@@H]5CC[C@]43C)[C@H]12				MIC [2]: 3.13 µg/mL
COC(=O)[C@]12CC[C@@H](C(C)COC(=O)CCC(=O)O)[C@@H]1[C@H]1CC[C@@H]3[C@@]4(C)CCC(=O)NC(C)(C)[C@@H]4CC[C@@]3(C)[C@]1(C)CC2 (some centres undefined)	23	27	28 (≈ 16.9 µg/mL)	
C=C(C)[C@@H]1CC[C@]2(C(=O)O)CC[C@]3(C)[C@H](CC[C@@H]4[C@@]5(C)CC[C@H](OC(=O)/C=C/c6ccc(O)cc6)C(C)(C)[C@@H]5CC[C@]43C)[C@@H]12				MIC [2]: 6.25 µg/mL (≈ 10.4 µM)
C[C@H]1[C@H](C)CC[C@]2(C(=O)O)CC[C@]3(C)C(=CC[C@@H]4[C@@]5(C)CC[C@H](OC(=O)/C=C/c6ccc(O)cc6)C(C)(C)[C@@H]5CC[C@]43C)[C@H]12				MIC [2]: 6.25 µg/mL (≈ 10.4 µM)
C=C(C)[C@@H]1CC[C@]2(C(=O)O)CC[C@]3(C)[C@H](CC[C@@H]4[C@@]5(C)C[C@@H](O)[C@H](O)C(C)(C)[C@@H]5CC[C@]43C)[C@@H]12 [ALPHITOLIC ACID]				MIC90 [5]: 12.5 µg/mL (≈ 26.4 µM)
NCC[C@H](O)C(=O)N[C@@H]1C[C@H](N)[C@@H](O[C@H]2O[C@H](CN)[C@@H](O)[C@H](O)[C@H]2O)[C@H](O)[C@H]1O[C@H]1O[C@H](CO)[C@@H](O)[C@H](N)[C@H]1O [AMIKACIN]	0.08	0.09	0.16 (≈ 0.0937 µg/mL)	
C=C(C)[C@@H]1CC[C@]2(C(=O)O)CC[C@]3(C)[C@H](CC[C@@H]4[C@@]5(C)CC[C@H](O)C(C)(C)[C@@H]5CC[C@]43C)[C@@H]12 [BETULINIC ACID]				MIC [6]: 62 µg/mL (≈ 136 µM); MIC90 [5]: 25 µg/mL (≈ 54.7 µM); MIC [7]: > 100 µg/mL; MIC [2]: 50 µg/mL (≈ 109 µM)
C=C(C)[C@@H]1CC[C@]2(CO)CC[C@]3(C)[C@H](CC[C@@H]4[C@@]5(C)CC[C@H](O)C(C)(C)[C@@H]5CC[C@]43C)[C@@H]12 [BETULIN]				MIC90 [5]: 25 to 30 µg/mL (≈ 56.5 to 67.8 µM)
N[C@@H]1CONC1=O [CYCLOSERINE]	20.8	33.1	50 (≈ 5.1 µg/mL)	
CC[C@@H](CO)NCCN[C@@H](CC)CO [ETHAMBUTOL]	1.25	1.78	6.25 (≈ 1.28 µg/mL)	
NNC(=O)c1ccncc1 [ISONIAZID]	0.12	0.19	0.31 (≈ 0.0425 µg/mL)	
C=C(C)[C@@H]1CC[C@]2(C)CC[C@]3(C)[C@H](CC[C@@H]4[C@@]5(C)CC[C@H](O)C(C)(C)[C@@H]5CC[C@]43C)[C@@H]12 [LUPEOL]				MIC90 [6]: > 64 µg/mL
CC1(C)CC[C@]2(C(=O)O)CC[C@]3(C)C(=CC[C@@H]4[C@@]5(C)CC[C@H](O)C(C)(C)[C@@H]5CC[C@]43C)[C@@H]2C1 [OLEANOLIC_ACID]				MIC [7]: 50 µg/mL (≈ 109 µM); MIC [2]: 25 µg/mL (≈ 54.7 µM)
CCc1nc(N)nc(N)c1-c1ccc(Cl)cc1 [PYRIMETHAMINE]	23.3	35.9	50 (≈ 12.4 µg/mL)	
CO[C@H]1/C=C/O[C@@]2(C)Oc3c(C)c(O)c4c(O)c(c(/C=N/N5CCN(C)CC5)c(O)c4c3C2=O)NC(=O)/C(C)=C\C=C\[C@H](C)[C@H](O)[C@@H](C)[C@@H](O)[C@@H](C)[C@H](OC(C)=O)[C@@H]1C [RIFAMPIN]	0.02	0.03	0.04 (≈ 0.0329 µg/mL)	
C[C@H]1[C@H](C)CC[C@]2(C(=O)O)CC[C@]3(C)C(=CC[C@@H]4[C@@]5(C)CC[C@H](O)C(C)(C)[C@@H]5CC[C@]43C)[C@H]12 [URSOLIC ACID]				MIC99 [8]: 50 µg/mL (≈ 109 µM); MIC99 [1]: 100 µg/mL (≈ 219 µM)
